Assay results: patent EP0837881B1, “CONJUGATES OF alpha-MSH WITH A FATTY ACID, PREPARATION METHOD THEREFOR, AND USE THEREOF AS A DRUG” (INSTITUT EUROPEEN DE BIOLOGIE CELLULAIRE, priority 1995, dated 2004)
“And” between values parts separate entries of the source, which are not always exact repeats. Equal values may be shown once. Numbered stars: 1 amine (or outer) side, 2 acyl side, 3 side chain; on linkers, the order of the positions; unused ones are H or OH. Square brackets hold non-standard residues; d marks the D form. Peptide text beside a SMILES is read from it. Adipoyl = O=C(CCCCC(=O)[*:2])[*:1]; d(hPhe) = N[C@H](CCc1ccccc1)C(=O)O; hLeu = CC(C)CC[C@H](N)C(=O)O

Tests used:
[1] = tested on: souris; assay: Comparative DNFB contact hypersensitivity test, conjugate versus its peptide alone (Example 9); assay type: in vivo
Source text: La méthode utilisée est celle décrite précédemment dans l'exemple N° 4, hypersensibilité de contact induite chez la souris par la D N F B. • Produits étudiés Lot I : [formula] - Conjugué 1 représenté par le composé P3. Lot II : Me.Nle - Glu - His - D-homo-Phé - Arg - Trp - Gly - NH2 Lot T : Témoin = Acide trans-10-hydroxy-2-décénoïque.
Solvant : le propylène glycol précédemment employé comme témoin dans l'exemple 6.
Une mesure de l'activité du témoin sera effectuée pour chaque expérimentation. - Expérimentation et posologie
Témoin: 10 ng d' acide trans-10-hydroxy-2-décénoïque par souris et par jour.
Au cinquième jour, trente minutes après la dernière application toutes les souris sont sensibilisées avec 25 µl de D N F B (2.4-dinitro-1-fluorobenzène (FLUKA CHEMIKA PURUM à 97 % lot N° 33820890)) à 2 % dans un mélange 4 pour 1 d'acétone (SDS réf. 05510) et de trioléine (FLUKA) appliqué par voie topique sur la région dorsale de peau rasée. Au sixième jour, on procède à une nouvelle sensibilisation par application de D N F B. Au onzième jour, l'épaisseur des oreilles des souris, est mesurée à l'aide d'un micromètre (ROCH 0 à 25 mm au 1/100 mm) afin d'obtenir des valeurs de base, puis les oreilles sont stimulées par application topique de 20 µl de D N F B à 0,8 %. Au douzième jour, l'épaisseur des oreilles est à nouveau mesurée. On établit la valeur moyenne de l'épaississement des oreilles pour les souris des lots qui ont reçu les produits à étudier, ainsi que pour les souris du lot témoin.Le pourcentage de suppression éventuelle sera exprimé par la même équation que dans l'exemple 6.

[2] = tested on: souris femelles C57 BL/6JICO; assay: Contact hypersensitivity test to dinitrofluorobenzene (DNFB), anti-allergic activity, topical application (Example 6); assay type: in vivo; conditions: for % Augment. O. Gauche / % Augment. O. Droite: increase of ear thickness; for % Augment. O. Gauche / % Suppress. O. Gauche: left ear; for % Augment. O. Droite / % Suppress. O. Droite: right ear; for % Suppress. O. Gauche / % Suppress. O. Droite: suppression versus control lot
Source text: Des souris femelles C57 BL/6JICO, âgées de 5 semaines sont réparties en dix lots de dix animaux (cinq par cage), avec libre accès à l'eau et à la nourriture, soumises à une photopériode de douze heures de lumière par vingt-quatre heures.
Les animaux des lots 1 à 6 reçoivent quotidiennement et par application topique sur la peau rasée du dos, les produits à étudier (conjugués 1 et 5 représentés par les composés P1 et P2 préparés selon les exemples 1 et 2), mis en solution dans du propylène glycol, sous un volume constant de 50 µl et cela pendant cinq jours consécutifs.
• Composé P1 - Lots 1, 2 et 3 - 2,5 µg, 0,5 µg et 0,1 µg /souris/jour respectivement. • Composé P2 - Lots 4, 5 et 6 - 2,5 µg, 0,5 µg et 0.1 µg /souris/jour respectivement.
Les animaux du lot 10 servent de témoins (ils reçoivent seulement, 50 µl de propylène glycol par application topique pendant cinq jours).
Au cinquième jour, trente minutes après la dernière application toutes les souris sont sensibilisées avec 25 µl de D N F B (2,4-dinitro-1-fluorobenzène (FLUKA CHEMIKA PURUM à 97 % lot n° 33820890)) à 2 % dans un mélange 4 pour 1 d'acétone (SDS réf 0510) et de trioléine (FLUKA) appliqué par voie topique sur la région dorsale de peau rasée.
Au sixième jour, on procède à une nouvelle sensibilisation par application de D N F B.
Au onzième jour, l'épaisseur des oreilles des souris, est mesurée à l'aide d'un micromètre (ROCH 0 à 25 mm au 1/100 mm) afin d'obtenir des valeurs de base, puis les oreilles sont stimulées par application topique de 20 µl de DNFB à 0,8 %.
Au douzième jour, l'épaisseur des oreilles est à nouveau mesurée. On établit la valeur moyenne de l'épaississement des oreilles pour les souris des lots qui ont reçu les produits à étudier, ainsi que pour les souris du lot témoin.
Le pourcentage de suppression éventuelle sera exprimé par le calcul suivant : (T-E)/(T)x100 [formula] avec T pour le pourcentage d'augmentation de l'épaisseur moyenne des oreilles du lot témoin et E pour celui des lots qui ont reçu les produits à étudier.

[3] = tested on: PGE2; assay: Inhibition of PGE2 production by IL1-stimulated MRC5 fibroblasts, RIA (Example 7); assay type: cell-based, humaine
Source text: Mise en évidence de l'effet inhibiteur des conjugués 1 et 5 (composés P1 et P2) sur la production par des fibroblastes stimulés par l'IL 1, d'un métabolite de l'acide arachidonique, la PGE2.
Nous avons choisi d'utiliser la souche ATCC MRC5 entretenue au laboratoire de façon continue et déjà testée par Cannon et al. (J. Immunol., 1986). Après un repiquage, les fibroblastes sont cultivés dans des micropuits (plaque de 24 puits de 2 cm^2, Falcon). L'innoculum est de 30 000 cellules par puits; le milieu nutritif utilisé est composé de RPMI 1640 (90 %) et de sérum de veau foetal décomplémenté (SVF, 10 %). Le milieu est changé tous les deux jours jusqu'à confluence des cellules.
Les couches monocellulaires ainsi obtenues sont lavées puis préincubées pendant 24 heures dans du milieu frais ne contenant que 1 % de SVF. […] Après 20 minutes d'incubation en présence de ces composés, l'ILI recombinante humaine (Tebu, France) à la concentration de 5, 2,5 ou 0,5 ng/ml de milieu est mise en contact avec des cellules pendant 18 heures. A la fin de cette incubation les surnageants sont prélevés et congelés à - 80 ° C jusqu'à l'analyse. Les couches monocellulaires sont fixées au méthanol.
Le dosage RIA est effectué selon la méthode décrite par Dray et al. (Europ. J. Invest. 1975). 3 séries d'expériences en duplicate ont été réalisées pour chaque concentration de produit étudié et pour les contrôles. Les résultats sont exprimés en pg/µg d'ADN. L'effet inhibiteur est exprimé en pourcentage par rapport aux contrôles.
Afin d'éviter toute erreur possible due au comptage en microscopie optique, l'ADN a été dosé par méthode fluorimétrique selon le protocole décrit par Brunk et al. (Analytical Biochem., 1979).

[4] = 0,1 µg/souris/jour topical for 5 days in propylene glycol
[5] = 0,1 µg/souris/jour topical for 5 days
[6] = 0,5 µg/souris/jour topical for 5 days in propylene glycol
[7] = 0,5 µg/souris/jour topical for 5 days
[8] = 2,5 µg/souris/jour topical for 5 days in propylene glycol
[9] = 2,5 µg/souris/jour topical for 5 days

SMILES: CC(C)CC[C@H](N)C(=O)N[C@@H](CCC(=O)O)C(=O)N[C@@H](Cc1c[nH]cn1)C(=O)N[C@H](CCc1ccccc1)C(=O)N[C@@H](CCCNC(=N)N)C(=O)N[C@@H](Cc1c[nH]c2ccccc12)C(=O)NCC(N)=O [Lot II, Me.Nle - Glu - His - D-homo-Phé - Arg - Trp - Gly - NH2] (H-[hLeu]EH[d(hPhe)]RWG-NH2)
- suppression de l'hypersensibilité cutanée ([1]; 0,1 µg/souris/jour): 47%
- suppression de l'hypersensibilité cutanée ([1]; 0,5 µg/souris/jour): ~60%
- suppression de l'hypersensibilité cutanée ([1]; 2,5 µg/souris/jour): ~69%

SMILES: CC(C)CC[C@H](NC(=O)CCCCC(=O)O)C(=O)N[C@@H](CCC(=O)O)C(=O)N[C@@H](Cc1c[nH]cn1)C(=O)N[C@H](CCc1ccccc1)C(=O)N[C@@H](CCCNC(=N)N)C(=O)N[C@@H](Cc1c[nH]c2ccccc12)C(=O)NCC(N)=O [Conjugué 1, Adipoyl - Me.Nle - Glu - His - D-homo-Phé - Arg - Trp - Gly - NH2] (Adipoyl-[hLeu]EH[d(hPhe)]RWG-NH2)
- % Augment. O. Gauche [2, 4]: 21,50%
- % Augment. O. Droite [2, 4]: 22,00%
- % Suppress. O. Gauche [2, 5]: 62,93%
- % Suppress. O. Droite [2, 5]: 62,39%
- % Augment. O. Gauche [2, 6]: 19,00%
- % Augment. O. Droite [2, 6]: 19,50%
- % Suppress. O. Gauche [2, 7]: 67,24%
- % Suppress. O. Droite [2, 7]: 66,66%
- % Augment. O. Gauche [2, 8]: 17,50%
- % Augment. O. Droite [2, 8]: 17,80%
- % Suppress. O. Gauche [2, 9]: 69,80%
- % Suppress. O. Droite [2, 9]: 69,57%
- suppression de la réaction d'hypersensibilité cutanée induite par administration de D N F. B ([2]; matches the 2,5 µg/souris/jour lots of Table 1): ~69%
- % inhib. ([3]; IL1 0,5 ng, conjugate 10^-4 M): 60%
- PGE2 ([3]; IL1 0,5 ng, conjugate 10^-4 M): 113 ± 25 pg/mg d'ADN
- % inhib. ([3]; IL1 0,5 ng, conjugate 10^-5 M): 38%
- PGE2 ([3]; IL1 0,5 ng, conjugate 10^-5 M): 176 ± 37 pg/mg d'ADN
- % inhib. ([3]; IL1 0,5 ng, conjugate 10^-6 M): 19%
- PGE2 ([3]; IL1 0,5 ng, conjugate 10^-6 M): 231 ± 55 pg/mg d'ADN
- % inhib. ([3]; IL1 0,5 ng, conjugate 10^-7 M): 13%
- PGE2 ([3]; IL1 0,5 ng, conjugate 10^-7 M): 249 ± 60 pg/mg d'ADN
- % inhib. ([3]; IL1 0,5 ng, conjugate 10^-8 M): 10%
- PGE2 ([3]; IL1 0,5 ng, conjugate 10^-8 M): 258 ± 35 pg/mg d'ADN
- PGE2 ([3]; IL1 0,5 ng, conjugate 10^-9 M): 364 ± 56 pg/mg d'ADN
- % inhib. ([3]; IL1 2,5 ng, conjugate 10^-4 M): 53%
- PGE2 ([3]; IL1 2,5 ng, conjugate 10^-4 M): 179 ± 50 pg/mg d'ADN
- % inhib. ([3]; IL1 2,5 ng, conjugate 10^-5 M): 40%
- PGE2 ([3]; IL1 2,5 ng, conjugate 10^-5 M): 232 ± 45 pg/mg d'ADN
- % inhib. ([3]; IL1 2,5 ng, conjugate 10^-6 M): 24%
- PGE2 ([3]; IL1 2,5 ng, conjugate 10^-6 M): 292 ± 68 pg/mg d'ADN
- % inhib. ([3]; IL1 2,5 ng, conjugate 10^-7 M): 6%
- PGE2 ([3]; IL1 2,5 ng, conjugate 10^-7 M): 364 ± 68 pg/mg d'ADN
- % inhib. ([3]; IL1 2,5 ng, conjugate 10^-8 M): 13%
- PGE2 ([3]; IL1 2,5 ng, conjugate 10^-8 M): 335 ± 50 pg/mg d'ADN
- % inhib. ([3]; IL1 2,5 ng, conjugate 10^-9 M): 17%
- PGE2 ([3]; IL1 2,5 ng, conjugate 10^-9 M): 320 ± 43 pg/mg d'ADN
- action inhibitrice ([3]; Table 2, dose-effect relation, independent of IL1 concentration): bonne action inhibitrice
- action à partir de 10^-7 M ([3]; conjugate 10^-7 M and lower, at both IL1 concentrations (2,5 and 0,5 ng)): pas d'action
- pouvoir inhibiteur de l'action de l'IL1 et de la PGE2 ([3]; summary of Tables 2 and 3): possèdent un pouvoir inhibiteur

SMILES: O=C(O)/C=C/CCCCCCCO [Lot T, Acide trans-10-hydroxy-2-décénoïque]
- % Augment. O. Gauche ([1]; 0,01 µg/souris/jour (10 ng) topical in propylene glycol, control substance, one measurement per experiment, left ear): 55,80% and 57,10%
- % Augment. O. Droite ([1]; 0,01 µg/souris/jour (10 ng) topical in propylene glycol, control substance, one measurement per experiment, right ear): 56,00% and 57,50%
- effet suppressif de l'hypersensibilité cutanée ([1]; in solution in propylene glycol, 10 ng per mouse per day): pas d'effet suppressif
